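Where inhibition never reached the appropriate level, the endpoint shown equals the highest concentration tested. Otherwise, values were interpolated linearly from a five-concentration, 48-hour dose response in 96-well plates. The concentration for 50% growth inhibition is given as GI50. TGI is the concentration that stops growth completely.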
Tests used:
Assay in all cases: growth of human tumour cells (NCI), 48 h
[1] = system: UACC-257 melanoma
[2] = system: EKVX NSCLC
[3] = system: OVCAR-5 ovarian
[4] = system: COLO 205 colon
[5] = system: SF-295 CNS
[6] = system: HCT-116 colon
[7] = system: ACHN renal
[8] = system: NCI/ADR-RES ovarian
[9] = system: RPMI-8226 leukemia
[10] = system: SK-OV-3 ovarian
[11] = system: MDA-MB-231 breast
[12] = system: HOP-62 NSCLC
[13] = system: KM12 colon
[14] = system: SF-268 CNS
[15] = system: DU-145 prostate
[16] = system: MCF7 breast
[17] = system: HOP-92 NSCLC
[18] = system: U251 CNS
[19] = system: SK-MEL-2 melanoma
[20] = system: PC-3 prostate
[21] = system: TK-10 renal
[22] = system: MOLT-4 leukemia
[23] = system: SNB-19 CNS
[24] = system: 786-0 renal
[25] = system: HL-60(TB) leukemia
[26] = system: HCC-2998 colon
[27] = system: HT29 colon
[28] = system: OVCAR-8 ovarian
[29] = system: SF-539 CNS
[30] = system: CAKI-1 renal
[31] = system: HS 578T breast
[32] = system: NCI-H522 lung
[33] = system: MDA-MB-435
[34] = system: RXF 393 renal
[35] = system: NCI-H23 lung
[36] = system: OVCAR-3 ovarian
[37] = system: SK-MEL-5 melanoma
[38] = system: SK-MEL-28 melanoma
[39] = system: SW-620 colon
[40] = system: MDA-MB-468 breast
[41] = system: OVCAR-4 ovarian
[42] = system: NCI-H226 lung
[43] = system: A498 renal
[44] = system: T-47D breast
[45] = system: K-562 leukemia
[46] = system: A549 NSCLC
[47] = system: BT-549 breast
[48] = system: NCI-H460 lung
[49] = system: LOX IMVI melanoma
[50] = system: CCRF-CEM leukemia
[51] = system: SN12C renal
[52] = system: MALME-3M melanoma
[53] = system: UO-31 renal
[54] = system: HCT-15 colon
[55] = system: M14 melanoma
[56] = system: IGROV1 ovarian
[57] = system: UACC-62 melanoma
[58] = system: SNB-75 CNS
[59] = system: SR leukemia

Molecule `COc1cccc(-c2ccc(/C=N/NC(=O)c3[nH]c4ccc(Br)cc4c3-c3ccccc3)s2)c1` has a GI50 [1] of 25.5 µM, a TGI [1] of over 100 µM and a GI50 [2] of 7.39 µM. For the same molecule, the TGI [2] was over 100 µM, the GI50 [3] was 3.64 µM and the TGI [3] was 25.8 µM. For the same molecule, the GI50 [4] was 3.28 µM, the TGI [4] was 12.9 µM and the GI50 [5] was 3.07 µM. It also gave a TGI [5] of 87 µM, a GI50 [6] of 2.97 µM and a TGI [6] of 10.5 µM. It also gave a GI50 [7] of 3.96 µM, a TGI [7] of over 100 µM and a GI50 [8] of 2.16 µM. For the same molecule, the TGI [8] was 5.91 µM, the GI50 [9] was 3.84 µM and the TGI [9] was over 100 µM. The GI50 [10] was 5.45 µM, the TGI [10] was over 100 µM and the GI50 [11] was 4.77 µM. For the same molecule, the TGI [11] was 94.7 µM, the GI50 [12] was 4.39 µM and the TGI [12] was over 100 µM. The GI50 [13] was 3.08 µM, the TGI [13] was 19.3 µM and the GI50 [14] was 3.72 µM. It also gave a TGI [14] of 84.3 µM, a GI50 [15] of 3.62 µM and a TGI [15] of over 100 µM. It also gave a GI50 [16] of 1.82 µM, a TGI [16] of over 100 µM and a GI50 [17] of 9.83 µM. For the same molecule, the TGI [17] was over 100 µM, the GI50 [18] was 4.92 µM and the TGI [18] was 72.2 µM. It also gave a GI50 [19] of 5.98 µM, a TGI [19] of over 100 µM and a GI50 [20] of 3.75 µM. For the same molecule, the TGI [20] was over 100 µM, the GI50 [21] was 9.97 µM and the TGI [21] was over 100 µM. For the same molecule, the GI50 [22] was 3.37 µM, the TGI [22] was 14.9 µM and the GI50 [23] was 9.17 µM. For the same molecule, the TGI [23] was over 100 µM, the GI50 [24] was 3.7 µM and the TGI [24] was over 100 µM. It also gave a GI50 [25] of 2.16 µM, a TGI [25] of 5.21 µM and a GI50 [26] of 4.21 µM. It also gave a TGI [26] of over 100 µM, a GI50 [27] of 2.81 µM and a TGI [27] of 10.1 µM. For the same molecule, the GI50 [28] was 3.24 µM, the TGI [28] was 16.9 µM and the GI50 [29] was 2.51 µM. For the same molecule, the TGI [29] was 6.8 µM, the GI50 [30] was 3.19 µM and the TGI [30] was 63.5 µM. The GI50 [31] was 2.4 µM, the TGI [31] was 8.62 µM and the GI50 [32] was 1.11 µM. For the same molecule, the TGI [32] was 11.1 µM, the GI50 [33] was 1.61 µM and the TGI [33] was 4.56 µM. For the same molecule, the GI50 [34] was 5.03 µM, the TGI [34] was 93.5 µM and the GI50 [35] was 5.55 µM. For the same molecule, the TGI [35] was 56.7 µM, the GI50 [36] was 2.24 µM and the TGI [36] was 7.69 µM. The GI50 [37] was 2.7 µM, the TGI [37] was 10.4 µM and the GI50 [38] was 8.33 µM. The TGI [38] was over 100 µM, the GI50 [39] was 3.71 µM and the TGI [39] was over 100 µM. It also gave a GI50 [40] of 2.67 µM, a TGI [40] of 19.3 µM and a GI50 [41] of 8.82 µM. The TGI [41] was over 100 µM, the GI50 [42] was 3.39 µM and the TGI [42] was over 100 µM. For the same molecule, the GI50 [43] was 82.3 µM, the TGI [43] was over 100 µM and the GI50 [44] was 5.6 µM. The TGI [44] was over 100 µM, the GI50 [45] was 2.18 µM and the TGI [45] was over 100 µM. It also gave a GI50 [46] of 4.71 µM, a TGI [46] of over 100 µM and a GI50 [47] of 3.96 µM. For the same molecule, the TGI [47] was 9.44 µM, the GI50 [48] was 3.01 µM and the TGI [48] was 12.5 µM. For the same molecule, the GI50 [49] was 2.45 µM, the TGI [49] was 36.4 µM and the GI50 [50] was 3.15 µM. It also gave a TGI [50] of 13.3 µM, a GI50 [51] of 3.74 µM and a TGI [51] of 30.9 µM. For the same molecule, the GI50 [52] was 5.66 µM, the TGI [52] was over 100 µM and the GI50 [53] was 5.4 µM. It also gave a TGI [53] of over 100 µM, a GI50 [54] of 3.36 µM and a TGI [54] of over 100 µM. The GI50 [55] was 3.76 µM, the TGI [55] was over 100 µM and the GI50 [56] was 4.26 µM. It also gave a TGI [56] of over 100 µM, a GI50 [57] of 3.35 µM and a TGI [57] of over 100 µM. The GI50 [58] was 2.63 µM, the TGI [58] was 9.12 µM and the GI50 [59] was 2.56 µM. The TGI [59] was 17.7 µM.
